Several values for one entry are separate records, joined by “and”; a condition that tells them apart may be missing. Equal values may be shown once. Activity calls are given as the source filed them. The calls are words filed in the database; no cut-off is given here.
Experiments:
P388 [1] = assay: Compound was tested for % increase in life span of P388 tumor; type: functional, Mus musculus
P388 [2] = assay: Compound was tested for % increase in life span of adriamycin resistant P388 tumor; type: functional, Mus musculus
P388 [3] = assay: Compound was tested for % increase in life span of vincristine resistant P388 tumor; type: functional, Mus musculus
P388 [4] = assay: The compound was evaluated in vitro for the P388 cell spindle disruption.; 0.006-0.009; type: functional, cell-based; settings: Mus musculus
Tubulin alpha chain [5] = target: T1, Tubulin alpha chain (Sus scrofa, UniProt P02550); assay: Compound was tested for competitive inhibition with radioligand [3H]colchicine at colchicine site of mammalian tubulin
T1 sequence (P02550 whole entry, looked up): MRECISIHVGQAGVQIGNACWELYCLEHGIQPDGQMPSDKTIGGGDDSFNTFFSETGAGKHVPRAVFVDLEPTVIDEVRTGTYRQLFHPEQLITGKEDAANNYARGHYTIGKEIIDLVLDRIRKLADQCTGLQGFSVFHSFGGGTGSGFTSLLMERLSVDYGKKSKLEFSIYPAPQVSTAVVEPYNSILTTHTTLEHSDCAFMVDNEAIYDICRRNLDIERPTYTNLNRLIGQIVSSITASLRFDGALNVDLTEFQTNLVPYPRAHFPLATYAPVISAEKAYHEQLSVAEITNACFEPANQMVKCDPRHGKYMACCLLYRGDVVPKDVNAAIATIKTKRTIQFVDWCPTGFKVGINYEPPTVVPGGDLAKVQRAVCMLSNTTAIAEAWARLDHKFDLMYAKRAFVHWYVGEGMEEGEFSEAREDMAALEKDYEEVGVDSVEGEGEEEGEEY

[6] = target: Tubulin alpha chain (Sus scrofa) (UniProt P02550); assay: Compound was tested for competitive inhibition with radioligand [3H]colchicine or [3H]vinblastine at alkaloid site on mammalian tubulin; No effect
Sequence of Tubulin alpha chain (Sus scrofa) (P02550 whole entry, looked up): as above

P388 [7] = assay: The compound was evaluated in vitro for the inhibition of murine leukemia P388D1 cell proliferation.; type: functional, cell-based; settings: Mus musculus
P388 [8] = assay: The compound was evaluated in vitro for the inhibition of P388D1 cell colony formation.; type: functional, cell-based; settings: Mus musculus
Tubulin alpha chain [9] = target: T1, Tubulin alpha chain; assay: In vitro mammalian brain tubulin polymerization using standard assay.; type: functional
P388 [10] = assay: The compound was evaluated in vitro for the P388 cell spindle disruption.; 0.02-0.04; type: functional, cell-based; settings: Mus musculus
Tubulin alpha chain [11] = target: T1, Tubulin alpha chain; assay: The compound was evaluated in vitro for the mammalian brain tubulin polymerization using standard assay.; type: functional

Row | Structure (SMILES) | ILS (P388 [1]) | ILS (P388 [2]) | ILS (P388 [3]) | EC50 (P388 [4]) | Ki (Tubulin alpha chain [5]) | Activity [6] | IC50 (P388 [7]) | IC50 (P388 [8]) | IC50 (Tubulin alpha chain [9]) | EC50 (P388 [10]) | IC50 (Tubulin alpha chain [11])
1 | COc1cccc2c1C(=O)c1c(O)c3c(c(O)c1C2=O)C[C@@](O)(C(=O)CO)C[C@@H]3O[C@H]1C[C@H](N)[C@H](O)[C@H](C)O1 [DOXORUBICIN] | ~120% | ~25% | – | – | – | – | – | – | – | – | –
2 | COC(=O)Nc1cn2nc(OCc3cc(OC)c(OC)c(OC)c3)ccc2n1 | ~147% and ~120% | ~110% | ~170% | 6 nM | 750 nM | inactive | 8.9 nM | 13 nM | 310 nM | – | –
3 | CC[C@]1(O)C[C@@H]2CN(CCc3c([nH]c4ccccc34)[C@@](C(=O)OC)(c3cc4c(cc3OC)N(C)[C@H]3[C@@](O)(C(=O)OC)[C@H](OC(C)=O)[C@]5(CC)C=CCN6CC[C@]43[C@@H]65)C2)C1 [VINBLASTINE] | ~100% | – | ~50% | – | – | – | 1.7 nM | 8.2 nM | – | – | –
4 | COc1cc([C@@H]2c3cc4c(cc3[C@@H](O[C@@H]3O[C@@H]5CO[C@@H](C)O[C@H]5[C@H](O)[C@H]3O)[C@H]3COC(=O)[C@H]23)OCO4)cc(OC)c1O [ETOPOSIDE] | ~80% | ~20% | – | – | – | – | – | – | – | – | –
5 | COc1cc2c(c(OC)c1OC)-c1ccc(OC)c(=O)cc1[C@@H](NC(C)=O)CC2 [COLCHICINE] | ~85% | – | ~75% | – | – | – | 0.62 nM | 71 nM | – | – | –
6 | CC[C@]1(O)C[C@H]2CN(CCc3c([nH]c4ccccc34)[C@@](C(=O)OC)(c3cc4c(cc3OC)N(C=O)[C@H]3[C@@](O)(C(=O)OC)[C@H](OC(C)=O)[C@]5(CC)C=CCN6CC[C@]43[C@@H]65)C2)C1 [VINCRISTINE] | ~130% | ~5% | ~10% | – | – | – | 4.7 nM | 190 nM | – | 20 nM | 220 nM
